Results from ChEMBL document CHEMBL3046564, “Antifungal activity of beta-asarone from rhizomes of Acorus gramineus” (2004).
Converted amounts (≈) assume the structure as drawn. The source made the active and inactive calls. The calls are words filed in the database; no cut-off is given here.

Legend:
[1] = system: Colletotrichum orbiculare; assay: Antifungal activity against Colletotrichum orbiculare infested cucumber plant grown under greenhouse condition assessed as reduction in lesion formation on second leaves at 10 to 500 ug/ml sprayed at two-leaf stage 1 day prior inoculation measured after 6 days post inoculation; format: functional, organism-based
Cladosporium cucumerinum = assay: Antimicrobial activity against Cladosporium cucumerinum assessed as mycelial growth inhibition after 3 to 5 days; format: functional
Candida albicans = assay: Antimicrobial activity against Candida albicans assessed as mycelial growth inhibition after 3 to 5 days; format: functional
Rhizoctonia solani = assay: Antimicrobial activity against Rhizoctonia solani assessed as mycelial growth inhibition after 3 to 5 days; format: functional
[2] = system: Colletotrichum orbiculare; assay: Antifungal activity against Colletotrichum orbiculare infested cucumber plant grown under greenhouse condition assessed as reduction in lesion formation on second leaves at 500 ug/ml sprayed at two-leaf stage 1 day prior inoculation measured after 6 days post inoculation; format: functional, organism-based
Bacillus subtilis = assay: Antimicrobial activity against Bacillus subtilis assessed as mycelial growth inhibition after 3 to 5 days; format: functional
Ralstonia solanacearum = assay: Antimicrobial activity against Ralstonia solanacearum assessed as mycelial growth inhibition after 3 to 5 days; format: functional
[3] = system: Fusarium oxysporum f. sp. lycopersici; assay: Antimicrobial activity against Fusarium oxysporum f. sp. lycopersici assessed as mycelial growth inhibition after 3 to 5 days; format: functional
Xanthomonas campestris = assay: Antimicrobial activity against Xanthomonas euvesicatoria assessed as mycelial growth inhibition after 3 to 5 days; format: functional
[4] = system: Pectobacterium carotovorum subsp. carotovorum; assay: Antimicrobial activity against Pectobacterium carotovorum subsp. carotovorum assessed as mycelial growth inhibition after 3 to 5 days; format: functional
Alternaria mali = assay: Antimicrobial activity against Alternaria mali assessed as mycelial growth inhibition at 100 ug/ml after 3 to 5 days; format: functional, organism-based
Ilyonectria destructans = assay: Antimicrobial activity against Ilyonectria radicicola assessed as mycelial growth inhibition after 3 to 5 days; format: functional
Saccharomyces cerevisiae = assay: Antimicrobial activity against Saccharomyces cerevisiae assessed as mycelial growth inhibition after 3 to 5 days; format: functional
Botrytis cinerea = assay: Antimicrobial activity against Botryotinia fuckeliana assessed as mycelial growth inhibition after 3 to 5 days; format: functional
[5] = system: Colletotrichum orbiculare; assay: Antimicrobial activity against Colletotrichum orbiculare assessed as mycelial growth inhibition after 3 to 5 days; format: functional
[6] = system: Colletotrichum orbiculare; assay: Antifungal activity against Colletotrichum orbiculare infested cucumber plant grown under greenhouse condition assessed as supression of anthracnose development at 500 ug/ml sprayed at two-leaf stage 1 day prior inoculation measured after 6 days post inoculation; format: functional, organism-based
Pyricularia grisea = assay: Antimicrobial activity against Magnaporthe grisea assessed as mycelial growth inhibition after 3 to 5 days; format: functional
Globisporangium ultimum = assay: Antimicrobial activity against Pythium ultimum assessed as mycelial growth inhibition after 3 to 5 days; format: functional
Sclerotinia sclerotiorum = assay: Antimicrobial activity against Sclerotinia sclerotiorum assessed as mycelial growth inhibition after 3 to 5 days; format: functional
Phytophthora capsici = assay: Antimicrobial activity against Phytophthora capsici assessed as mycelial growth inhibition after 3 to 5 days; format: functional

| Compound | Activity [1] | MIC (Cladosporium cucumerinum) | MIC (Candida albicans) | MIC (Rhizoctonia solani) | Activity [2] | MIC (Bacillus subtilis) | MIC (Ralstonia solanacearum) | MIC [3] | MIC (Xanthomonas campestris) | MIC [4] | growth inhibition (GI) (Alternaria mali) | MIC (Ilyonectria destructans) | MIC (Saccharomyces cerevisiae) | MIC (Botrytis cinerea) | MIC [5] | Activity [6] | MIC (Pyricularia grisea) | MIC (Globisporangium ultimum) | MIC (Sclerotinia sclerotiorum) | MIC (Phytophthora capsici) |
| --- | --- | --- | --- | --- | --- | --- | --- | --- | --- | --- | --- | --- | --- | --- | --- | --- | --- | --- | --- | --- |
| N#Cc1c(Cl)c(Cl)c(Cl)c(C#N)c1Cl | Active |  |  |  |  |  |  |  |  |  |  |  |  |  |  |  |  |  |  |  |
| C/C=C\c1cc(OC)c(OC)cc1OC [CIS-ASARONE] |  | 30 µg/mL (≈ 144 µM) | > 100 µg/mL | > 100 µg/mL | Active | 50 µg/mL (≈ 240 µM) | 50 µg/mL (≈ 240 µM) | > 100 µg/mL | 50 µg/mL (≈ 240 µM) | 50 µg/mL (≈ 240 µM) | inactive | > 100 µg/mL | > 100 µg/mL | > 100 µg/mL | 30 µg/mL (≈ 144 µM) | Active | 30 µg/mL (≈ 144 µM) | 0.5 µg/mL (≈ 2.4 µM) | > 100 µg/mL | > 100 µg/mL |
